Ends that are not written are not given here.
What was measured:
MUC4 peptides = test: Immunogenicity of KLH-conjugated MUC4 peptides in rabbits (serum antibody titre); type: in vivo, rabbit; details: ten weeks after immunization with KLH-conjugated peptide
Method: The present invention also provides antibodies capable of immunospecifically binding to MUC4. Polyclonal antibodies directed toward human MUC4 protein may be prepared according to standard methods. In a preferred embodiment, monoclonal antibodies are prepared, which react immunospecifically with the various epitopes of the MUC4 protein. Monoclonal antibodies have been prepared according to general methods of Kohler and Milstein, following standard protocols.

[1] = tested on: MUC4 mRNA expression in PBMC; test: MUC4 mRNA expression (RT-PCR) in PBMC from healthy volunteers after incubation with cytokines, growth factors or mitogens; type: cell-based, human; details: incubated 24 and 48 hours, serum free, retinoic acid 100 nM, 1 μM, TGF-β2 10, 20 and 200 pg/ml
Method: Freshly prepared PBMC (10×10^6 cells) from healthy volunteers were stimulated with PHA (10 μg/ml) and LPS (20 μg/ml, all from Sigma) for 12 and 24 hours. To study the effect of different cytokines and growth factors on the MUC4 mRNA expression, 10 million PBMC were incubated with TGF-β1 (10; 20 and 200 pg/ml), TGF-β2 (10; 20 and 200 pg/ml) (all from R&D systems, Minneapolis, Minn.), retinoic acid (RA) (100 nM; 1 μM) (Sigma), GM-CSF (100 U/ml) (Immunex Corp. Seattle, Wash.), IL-1β (10 ng/ml), IL-6 (10 ng/ml), IL-9 (50 ng/ml), IFNγ (10 and 20 ng/ml), TNFα (10 and 50 ng/ml) or with IFNγ (10 and 20 ng/ml) in combination with TNFα (10 and 50 ng/ml) (all from PeproTech Inc., Rocky Hill, N.J.) for 24 and 48 hours under serum free conditions.
The single step RNA isolation method was used for RNA preparation as previously described (28,29). In brief, cells were homogenized in a denaturing solution containing 4 M guanidine thiocyanate. The homogenate was mixed sequentially with 2 M sodium acetate (pH 4), phenol and chloroform/isoamyl alcohol. […] The RNA pellet was then resuspended in diethyl pyrocarbonate (DEPC)-treated water, and the final RNA concentration was determined spectrophotometrically by measuring the absorbance at 260 nm and 280 nm (DU 640B, Beckman Coulter, Fullstone Calif.). […]

[2] = tested on: MUC4 expression in pancreatic cancer cells; details: previous work (31); cited from earlier work

Molecule: GARFSYFLNSAEALP (also: KLH conjugate; listed as Homo sapiens) [MUC4 β, MUC4 peptide synthesized and conjugated to the KLH protein as an immunogen]
- antibody titre of rabbit sera reacting specifically with the peptide (MUC4 peptides): 31,108 units

Molecule: ATYRPPQPAWMFGD (also: KLH conjugate; listed as Homo sapiens) [MUC4 α, MUC4 peptide synthesized and conjugated to the KLH protein as an immunogen]
- antibody titre of rabbit sera reacting specifically with the peptide (MUC4 peptides): 47,338 units

B1: TGF-β2: growth factor from R&D systems; produced and secreted by pancreatic cancer cell lines (protein, UniProt P61812 303-414, looked up)
Transforming growth factor …: ALDAAYCFRNVQDNCCLRPLYIDFKRDLGWKWIHEPKGYNANFCAGACPYLWSSDTQHSRVLSLYNTINPEASASPCCVSQDLEPLTILYYIGKTPKIEQLSNMIVKSCKCS
- induction of MUC4 mRNA expression in PBMC [1]: neither incubation with retinoic acid and TGF-β2 nor the activation of T-cells and B-cells with PHA and LPS or incubation with various other cytokines induced MUC4 mRNA expression
- MUC4 expression after treatment [2]: resulted in MUC4 expression
